Target: Fibroblast growth factor receptor 3 (Homo sapiens, UniProt P22607)
Assay: Inhibition of recombinant human N-terminal His6-tagged FGFR3 (447 to 761 residues) expressed in Sf21 cells using biotinylated EQEDEPEGDYFEWLE peptide as substrate preincubated for 4 hrs followed by substrate addition and measured after 1 hr in presence of ATP by FRET assay

Chain of Fibroblast growth factor receptor 3 (P22607 whole entry, the tested form may be a part): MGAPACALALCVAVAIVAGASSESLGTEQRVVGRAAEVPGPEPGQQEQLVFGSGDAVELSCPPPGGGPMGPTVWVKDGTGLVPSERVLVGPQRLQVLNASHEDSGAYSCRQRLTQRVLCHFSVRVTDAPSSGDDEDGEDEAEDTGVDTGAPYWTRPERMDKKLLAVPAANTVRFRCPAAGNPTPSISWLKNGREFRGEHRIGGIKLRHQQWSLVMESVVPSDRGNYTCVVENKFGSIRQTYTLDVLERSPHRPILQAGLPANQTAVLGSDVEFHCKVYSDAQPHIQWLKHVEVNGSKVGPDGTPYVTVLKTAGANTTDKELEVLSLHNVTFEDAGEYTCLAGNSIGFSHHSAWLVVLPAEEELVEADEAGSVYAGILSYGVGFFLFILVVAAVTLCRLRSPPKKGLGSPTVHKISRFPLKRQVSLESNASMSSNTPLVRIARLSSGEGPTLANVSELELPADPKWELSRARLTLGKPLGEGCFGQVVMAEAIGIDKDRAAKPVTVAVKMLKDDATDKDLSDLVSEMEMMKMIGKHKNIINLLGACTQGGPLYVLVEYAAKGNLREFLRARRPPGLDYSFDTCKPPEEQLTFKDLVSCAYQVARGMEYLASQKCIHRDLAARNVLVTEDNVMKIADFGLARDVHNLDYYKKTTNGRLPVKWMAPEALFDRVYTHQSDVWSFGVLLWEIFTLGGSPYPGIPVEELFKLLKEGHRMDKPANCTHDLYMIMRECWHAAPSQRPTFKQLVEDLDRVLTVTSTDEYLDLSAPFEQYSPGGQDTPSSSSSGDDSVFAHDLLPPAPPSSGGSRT

Structure (SMILES) | IC50 [nM]
CC(C)C1C(=O)N(C)CCN1c1ccc2[nH]nc(-c3cnn(Cc4cccnc4)c3)c2n1 (stereo unspecified) | < 10
Cn1cc(-c2n[nH]c3ccc(N4CCn5cnc(C(F)(F)F)c5C4)nc23)cn1 | < 10
CC(C)C1C(=O)N(C)CCN1c1ccc2[nH]nc(-c3cnn(C)c3)c2n1 (stereo unspecified) | < 10
CN1CCN(c2ccc3[nH]nc(-c4cnn(C)c4)c3n2)C(C2CC2)C1=O (stereo unspecified) | < 10
CC(C)C1C(=O)N(C)CCN1c1ccc2[nH]nc(-c3cc4cnccc4s3)c2n1 (stereo unspecified) | < 10
CC1CN(c2ccc3[nH]nc(-c4cnn(C)c4)c3n2)C(C)C(=O)N1C (stereo unspecified) | < 10

From ChEMBL document CHEMBL4680363, “Novel Bicyclic Heterocycles as FGFR Inhibitors for Treating Cancer” (ACS Med Chem Lett, 2021)
